Assay results reported in patent US10611732B2, “HIV replication inhibiting pyrimidines” (Janssen Pharmaceutica NV, priority 2001, dated 2020).
Where two headings read alike, the source gives them in different places.

Assays:
[1] = tested on: HIV; test: microbe, parasite or virus in culture; settings: for pIC50 (−log IC50): HIV-infected MT-4 cells; for pIC50 (−log IC50) / IC50: dose achieving 50% protection, MTT, OD 540 nm; for pSI (pCC50-pIC50): selectivity index, ratio of CC50 to IC50, as log difference; for IC50: Human immunodeficiency virus 1, MT4, read-out: pIC50 (−log IC50), HIV-infected MT-4 cells (converted)
Description: (§1) A rapid, sensitive and automated assay procedure was used for the in vitro evaluation of anti-HIV agents. An […] T4-cell line, MT-4, which was previously shown (Koyanagi et al., Int. J Cancer, 36, 445-451, 1985) to be highly susceptible to and permissive for HIV infection, served as the target cell line. Inhibition of the HIV-induced cytopathic effect was used as the end point. The viability of both HIV- and mock-infected cells was assessed spectrophotometrically via the in situ reduction of 3-(4,5-dimethylthiazol-2-yl)-2,5-diphenyltetrazolium bromide (MTT). The 50% cytotoxic concentration (CC50 in M) was defined as the concentration of compound that reduced the absorbance of the mock-infected control sample by 50%. The percent protection achieved by the compound in HIV-infected cells was calculated by the following formula:
(§2) [formula] whereby (ODT)HIV is the optical density measured with a given concentration of the test compound in HIV-infected cells; (ODC)HIV is the optical density measured for the control untreated HIV-infected cells; (ODC)MOCK is the optical density measured for the control untreated mock-infected cells; all optical density values were determined at 540 nm. The dose achieving 50% protection according to the above formula was defined as the 50% inhibitory concentration (IC50 in M). The ratio of CC50 to IC50 was defined as the selectivity index (SI).
(§3) Table 6 lists the pIC50 (−log IC50), pCC50 (−log CC50) and pSI (pCC50-pIC50) values for the compounds of formula (I).

[2] = tested on: mock-infected MT-4 cells; test: cytotoxicity in mock-infected MT-4 cells (MTT)
Description: as §1, §2, §3

[3] = mock-infected MT-4 cells, concentration reducing absorbance of control by 50%, MTT

| SMILES | pIC50 (−log IC50) [1] | pSI (pCC50-pIC50) [1] | pCC50 (−log CC50) [2] | IC50 [1] | pCC50 (−log CC50) [2, 3] |
| --- | --- | --- | --- | --- | --- |
| Cc1cc(C=C(C#N)CC#N)cc(C)c1Nc1ccnc(Nc2ccc(C#N)cc2)n1 (mixture of isomers) [Compound 147] | 9.4 | −3.7 | 5.7 M |  |  |
| Cc1cc(/C=C/C#N)cc(C)c1Nc1ccnc(Nc2ccc(C#N)cc2)n1 [Compound 1, 4-[[4-[[4-(2-cyanoethenyl)-2,6-dimethylphenyl]amino]-2-pyrimidinyl]amino]benzonitrile (E)] |  | −4.4 |  | 0.398 nM | 5.0 M |
| Cc1cc(-c2ccco2)cc(C)c1Nc1ccnc(Nc2ccc(C#N)cc2)n1 [Compound 3] |  | −2.9 |  | 3.98 nM |  |
| CO/N=C(\c1cc(C)c(Nc2ccnc(Nc3ccc(C#N)cc3)n2)c(C)c1)C(C)C [Compound 9] |  | −4 |  | 1.58 nM |  |
| Cc1cc(/C=C\C#N)cc(C)c1Nc1ccnc(Nc2ccc(C#N)cc2)n1 [Compound 10] |  | −2.9 | 6.3 M |  |  |
| C/C(C#N)=C/c1cc(C)c(Nc2ccnc(Nc3ccc(C#N)cc3)n2)c(C)c1 [Compound 11] | 9.2 | −3.5 | 5.7 M |  |  |
| Cc1cc(C(O)CC#N)cc(C)c1Nc1ccnc(Nc2ccc(C#N)cc2)n1 (stereo not shown) [Compound 18] |  | −4.0 |  | 1.58 nM |  |
| Cc1cc(-c2ccsc2)cc(C)c1Nc1ccnc(Nc2ccc(C#N)cc2)n1 [Compound 21] |  | −3.5 |  | 3.98 nM |  |
| Cc1cc(CCC#N)cc(C)c1Nc1ccnc(Nc2ccc(C#N)cc2)n1 [Compound 24] |  | −3.4 |  | 0.794 nM |  |
| Cc1cc(C=CC#N)cc(C)c1Oc1ccnc(Nc2ccc(C#N)cc2)n1 [Compound 25] | 9 | −5 |  |  |  |
| CC(=O)c1cccc(-c2cc(C)c(Nc3ccnc(Nc4ccc(C#N)cc4)n3)c(C)c2)c1 [Compound 34] |  | −3.2 |  | 10 nM |  |
| CC(=NO)c1cc(C)c(Nc2ccnc(Nc3ccc(C#N)cc3)n2)c(C)c1 [Compound 45] | 8.7 | −3.8 | 5.0 M |  |  |
| Cc1cc(/C=C(\C#N)c2cccs2)cc(C)c1Nc1ccnc(Nc2ccc(C#N)cc2)n1 [Compound 49] |  | −3.2 |  | 10 nM |  |
| Cc1cc(Cn2ccnc2)cc(C)c1Nc1ccnc(Nc2ccc(C#N)cc2)n1 [Compound 70] |  | −3.3 |  | 7.94 nM |  |
| Cc1cc(CN(C)CCC#N)cc(C)c1Nc1ccnc(Nc2ccc(C#N)cc2)n1 [Compound 75] | 9.0 | −4.0 | 5.0 M |  |  |
| Cc1cc(CN2CCSC2)cc(C)c1Nc1ccnc(Nc2ccc(C#N)cc2)n1 [Compound 78] |  | −3.5 |  | 3.98 nM |  |
| CCN(Cc1ccncc1)Cc1cc(C)c(Nc2ccnc(Nc3ccc(C#N)cc3)n2)c(C)c1 [Compound 79] |  | −2.7 |  | 10 nM |  |
| C/C(=C\C#N)c1cc(C)c(Nc2ccnc(Nc3ccc(C#N)cc3)n2)c(C)c1 [Compound 84] | 9.0 | −4.5 | 4.5 M |  |  |

| SMILES | pIC50 (−log IC50) [1] | pSI (pCC50-pIC50) [1] | pCC50 (−log CC50) [2] | IC50 [1] | pCC50 (−log CC50) [2, 3] |
| --- | --- | --- | --- | --- | --- |
| Cc1cc(-n2cccc2)cc(C)c1Oc1ccnc(Nc2ccc(C#N)cc2)n1 [Compound 118] |  | <−4.1 |  | 3.98 nM |  |
| Cc1cc(/C(Cl)=C\C#N)cc(C)c1Nc1ccnc(Nc2ccc(C#N)cc2)n1 [Compound 124] |  | −3.8 |  | 3.16 nM |  |
| Cc1cc(/C=C/C#N)cc(Cl)c1Nc1ccnc(Nc2ccc(C#N)cc2)n1 [Compound 133] | 9.2 | −5.2 | 4 M |  |  |
| Cc1cc(CC(C#N)C#N)cc(C)c1Nc1ccnc(Nc2ccc(C#N)cc2)n1 [Compound 144] | 8.6 | −2.2 | 6.4 M |  |  |
| Cc1cc(/C=C/c2cccnc2)cc(C)c1Nc1ccnc(Nc2ccc(C#N)cc2)n1 [Compound 145] |  | −3.4 |  | 2 nM |  |
| Cc1cc(/C=C/c2cccnc2)cc(C)c1Nc1ccnc(Nc2ccc(C#N)cc2)n1 [Compound 146] | 8.4 | −3 |  |  | 5.4 M |
| CC/C(=C\C#N)c1cc(C)c(Nc2ccnc(Nc3ccc(C#N)cc3)n2)c(C)c1 [Compound 148] | 8.8 | −3.9 | 4.9 M |  |  |
| Cc1cc(/C(=C/C#N)C(C)C)cc(C)c1Nc1ccnc(Nc2ccc(C#N)cc2)n1 [Compound 149] | 9.1 | −3.8 | 5.3 M |  |  |
| Cc1cc(/C(=C\C#N)C(C)C)cc(C)c1Nc1ccnc(Nc2ccc(C#N)cc2)n1 [Compound 150] | 8.8 | −4.0 | 4.8 M |  |  |
| C/C(C#N)=C/c1cc(C)c(Nc2ccnc(Nc3ccc(C#N)cc3)n2)c(C)c1 [Compound 151] | 9.1 | −3.6 | 5.5 M |  |  |
| C/C(C#N)=C/c1cc(C)c(Nc2ccnc(Nc3ccc(C#N)cc3)n2)c(C)c1 [Compound 152] | 9.1 | −4.3 | 4.8 M |  |  |
| Cc1cc(CC(C)C#N)cc(C)c1Nc1ccnc(Nc2ccc(C#N)cc2)n1 (stereo not shown) [Compound 153] | 9.2 | −2.9 | 6.3 M |  |  |
| Cc1cc(/C=C/C(=O)N2CCN(C)CC2)cc(C)c1Nc1ccnc(Nc2ccc(C#N)cc2)n1 [Compound 155] |  | −2.5 |  | 1.58 nM |  |
| Cc1cc(/C=C/C(=O)N2CCOCC2)cc(C)c1Nc1ccnc(Nc2ccc(C#N)cc2)n1 [Compound 156] |  | −2.6 |  | 20 nM |  |
| Cc1cc(/C=C/C(=O)N2CC=CC2)cc(C)c1Oc1ccnc(Nc2ccc(C#N)cc2)n1 [Compound 209] |  | −3.7 |  | 2.51 nM |  |
| Cc1cc(/C=C/C(=O)N(C)C2CCN(C)CC2)cc(C)c1Oc1ccnc(Nc2ccc(C#N)cc2)n1 [Compound 210] |  | −3.5 |  | 5.01 nM |  |
| Cc1cc(/C=C/C(=O)N2CCOCC2)cc(C)c1Oc1ccnc(Nc2ccc(C#N)cc2)n1 [Compound 216] |  | −3.6 |  | 6.31 nM |  |
